Source: US20040186166A1, “Cannabinoid analogs as peroxisome proliferator activated nuclear receptor gamma activators” (priority 2002, published 2004)
Several values for one entry are separate records, joined by “and”; a condition that tells them apart may be missing. Equal entries are not always repeated.

What was measured:
Format in all cases: cell-based
[1] = biological target: T1, Gal4-DBD/mPPARγ (Mus musculus, UniProt P37238); experiment: Gal4-dependent MH100-Luc reporter, Gal4-DBD/mPPARγ; details: HEK293 cells
T1 construct: expressed in transfected cells; host or cells: HEK293
T1 sequence (P37238 1-475 isoform P37238-2): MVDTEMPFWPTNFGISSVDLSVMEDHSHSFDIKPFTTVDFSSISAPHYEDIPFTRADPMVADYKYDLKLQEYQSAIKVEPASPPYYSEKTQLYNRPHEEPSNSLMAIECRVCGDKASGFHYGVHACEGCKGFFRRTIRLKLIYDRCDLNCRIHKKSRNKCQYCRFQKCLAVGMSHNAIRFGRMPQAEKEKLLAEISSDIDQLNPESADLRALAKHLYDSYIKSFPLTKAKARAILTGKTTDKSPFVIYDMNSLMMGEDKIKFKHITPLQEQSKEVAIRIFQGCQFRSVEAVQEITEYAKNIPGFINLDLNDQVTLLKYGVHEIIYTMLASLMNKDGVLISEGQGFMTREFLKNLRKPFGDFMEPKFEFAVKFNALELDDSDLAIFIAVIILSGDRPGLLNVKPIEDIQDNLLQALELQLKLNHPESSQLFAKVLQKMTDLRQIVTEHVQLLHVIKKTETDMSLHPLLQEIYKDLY
Description: The-pCMX-Gal4-mPPARγ1 was constructed by fusing the mPPARγ1 coding sequence to the yeast GAL4 DNA binding domain (amino acid 1-147) in the pCMX vector. The AF-2 helix-truncated mutant of mPPARγ1 (PPARγ ΔAF2) was generated by PCR amplification-to introduce a stop codon and a NheI restriction site after amino acid 489, and then-subcloned into the pCMX vector. The PPRE-TK-LUC, MH100-TK-LUC-and DR1-TK-LUC reporters have been described previously (Forman et al., Cell 83:803-812, 1995; Umesono et al., Cell 65:1255-1266, 1991).
(§1) For PPARγ activation assay, HEK293 cells were plated in 12-well cell culture plates and maintained in Dulbecco's modified Eagle's medium (DMEM) supplemented with 10% fetal bovine serum (FBS) at 37° C. under 5% CO2. […] The average normalized luciferase activity was determined via triplicate experiments. […]
To further confirm activation of PPARγ by AJA, and also to determine PPARγ species specificity, the ability of AJA to activate the chimeric Gal4-DBD/PPAR fusion proteins on a Gal4-dependent MH100-Luc reporter was assessed (FIG. 4A). The PPARs were expressed as Gal4 DBD fusion proteins, which bind to the UAS promoter containing 4 copies of a synthetic Gal4 binding site upstream of the minimal thymidine kinase (TK) promoter. […]

[2] = biological target: T2, human PPARδ (Homo sapiens, UniProt Q03181); experiment: Gal4-dependent MH100-Luc reporter, human PPARδ
T2 construct: The Gal4-hPPAR LBD constructs were obtained from GlaxoSmithKline; host or cells: HEK293
T2 sequence (Q03181 211-439 limits assumed): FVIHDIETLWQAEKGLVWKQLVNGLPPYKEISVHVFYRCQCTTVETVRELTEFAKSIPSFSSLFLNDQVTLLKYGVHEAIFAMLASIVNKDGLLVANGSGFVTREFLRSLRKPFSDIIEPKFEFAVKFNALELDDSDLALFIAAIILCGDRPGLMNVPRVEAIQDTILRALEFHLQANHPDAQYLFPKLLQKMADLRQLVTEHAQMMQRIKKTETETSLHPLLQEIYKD
Protocol: (§2) The pGEX-DRIP205 (527˜970) was obtained from the Sloan-Kettering Cancer Center. The Gal4-hPPAR LBD constructs were obtained from GlaxoSmithKline, Research Triangle Park, NC. The IL8-Luciferase reporter was obtained from Celgene, San Diego, Calif. The plasmids mPPARα, mPPARγ1, mPPARδ , and hRXRα were in the pCMX vector (Umesono et al., Cell 65:1255-1266, 1991).
as §1
(§3) To further confirm activation of PPARγ by AJA, and also to determine PPARγ species specificity, the ability of AJA to activate the chimeric Gal4-DBD/PPAR fusion proteins on a Gal4-dependent MH100-Luc reporter was assessed (FIG. 4A). The PPARs were expressed as Gal4 DBD fusion proteins, which bind to the UAS promoter containing 4 copies of a synthetic Gal4 binding site upstream of the minimal thymidine kinase (TK) promoter. […] Transfected cells were treated with increasing concentrations of AJA from 10-60 μM and the luciferase activities were determined in triplicate experiments. […]

[3] = biological target: T3, human PPARγ (Homo sapiens, UniProt P37231); experiment: Gal4-dependent MH100-Luc reporter, human PPARγ; details: compared with mouse PPARγ
T3 construct: The Gal4-hPPAR LBD constructs were obtained from GlaxoSmithKline; host or cells: HEK293
T3 sequence (P37231 238-503 limits assumed): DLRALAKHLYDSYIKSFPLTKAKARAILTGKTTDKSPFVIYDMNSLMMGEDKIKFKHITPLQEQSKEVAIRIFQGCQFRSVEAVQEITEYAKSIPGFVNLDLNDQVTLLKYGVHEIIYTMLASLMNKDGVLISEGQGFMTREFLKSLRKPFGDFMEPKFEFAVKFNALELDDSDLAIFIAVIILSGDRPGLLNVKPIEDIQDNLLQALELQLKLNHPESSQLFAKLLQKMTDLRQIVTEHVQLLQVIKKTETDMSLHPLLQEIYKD
Protocol: as §2, §1, §3

## CCCCCCC(C)(C)c1cc(O)c2c(c1)OC(C)(C)[C@@H]1CC=C(C(=O)O)C[C@@H]21 [AJA, dimethylheptyl-THC-11-oic acid]
[1]; 20 μM AJA
  activation of Gal4-DBD/mPPARγ reporter gene expression: activated the reporter gene expression significantly
[1]; EC-50 for activation of PPARγ, estimated, 10-60 μM AJA, luciferase activity
  EC50: ~13 µM and 13 µM
[2]
  activation of human PPARδ: did not activate
[3]
  activation of human PPARγ: activates human PPARγ as efficiently as mouse PPARγ
